Data: ChEMBL document CHEMBL1201862, “PubChem BioAssay data set” (2004)
Each block holds one compound with its values, some of them ahead of it. Calls of active or inactive are those of the source.

Legend:
HeLa = experiment: Cytotoxicity counterscreen assay for transcriptional activators of heat shock protein 70 (Hsp70). [Related pubchem assays: 1203, 1252 ]; type: functional; details: Homo sapiens;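 note: cells exposed to compound for 16 hours before readout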
[1] = target: Eukaryotic translation initiation factor 4H (Homo sapiens, UniProt Q15056); experiment: eIF4H binding inhibition – biochemical, uHTS, fluorescence polarization, translation initiation inhibitor project, primary screen (AID 2012)
[2] = target: Polyadenylate-binding protein 1 (Homo sapiens, UniProt P11940); experiment: blockers of PABP interaction with poly(A) – biochemical, fluorescence polarization, […] (AID 2014)
Cytochrome P450 2C9 = Cytochrome P450 2C9 (Homo sapiens, UniProt P11712); details: Potency
[3] = target: T1, Alkaline phosphatase, tissue-nonspecific isozyme (Homo sapiens, UniProt P05186)
T1 sequence (P05186 whole entry): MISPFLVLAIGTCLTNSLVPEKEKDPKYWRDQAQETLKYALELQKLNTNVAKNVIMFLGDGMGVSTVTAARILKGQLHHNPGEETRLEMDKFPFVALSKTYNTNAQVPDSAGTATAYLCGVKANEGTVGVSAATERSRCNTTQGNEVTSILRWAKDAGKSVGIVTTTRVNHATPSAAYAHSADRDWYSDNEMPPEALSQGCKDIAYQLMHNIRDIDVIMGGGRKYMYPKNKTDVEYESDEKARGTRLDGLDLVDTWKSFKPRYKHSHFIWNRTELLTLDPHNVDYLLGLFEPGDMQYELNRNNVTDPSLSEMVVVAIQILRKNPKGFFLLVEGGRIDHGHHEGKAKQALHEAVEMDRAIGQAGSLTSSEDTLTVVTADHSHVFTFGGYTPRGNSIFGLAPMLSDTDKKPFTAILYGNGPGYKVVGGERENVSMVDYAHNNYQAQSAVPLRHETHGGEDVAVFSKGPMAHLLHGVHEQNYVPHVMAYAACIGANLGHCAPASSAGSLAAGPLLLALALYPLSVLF

Leucine aminopeptidase = target: T2, Leucine aminopeptidase (Plasmodium falciparum 3D7, UniProt Q8IL11); experiment: P. falciparum M17LAP inhibitors, primary screen, biochemical, fluorogenic H-Leu-NHMec substrate, 1536-well (AID 1619); type: functional
T2 sequence (Q8IL11 whole entry): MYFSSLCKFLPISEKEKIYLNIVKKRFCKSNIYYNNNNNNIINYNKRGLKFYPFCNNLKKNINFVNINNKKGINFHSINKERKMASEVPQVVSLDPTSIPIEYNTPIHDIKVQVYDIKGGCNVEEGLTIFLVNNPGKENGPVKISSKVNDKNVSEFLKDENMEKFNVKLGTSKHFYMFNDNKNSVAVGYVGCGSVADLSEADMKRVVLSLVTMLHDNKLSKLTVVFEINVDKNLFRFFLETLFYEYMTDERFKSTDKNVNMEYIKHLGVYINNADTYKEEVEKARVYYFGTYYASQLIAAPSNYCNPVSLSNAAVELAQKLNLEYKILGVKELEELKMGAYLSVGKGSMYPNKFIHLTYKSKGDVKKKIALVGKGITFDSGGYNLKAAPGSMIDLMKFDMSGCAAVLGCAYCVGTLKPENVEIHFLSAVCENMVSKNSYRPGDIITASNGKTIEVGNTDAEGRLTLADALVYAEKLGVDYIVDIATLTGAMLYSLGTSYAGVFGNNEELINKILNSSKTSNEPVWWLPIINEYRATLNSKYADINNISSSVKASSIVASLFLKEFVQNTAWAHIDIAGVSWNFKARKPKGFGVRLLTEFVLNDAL

Aminopeptidase N = target: T3, Aminopeptidase N (Plasmodium falciparum FcB1/Columbia, UniProt O96935); experiment: malaria alanyl aminopeptidase activity blockers – biochemical, fluorogenic H-Leu-NHMec substrate, 1536-well (AID 1445); parameters: species or system Plasmodium falciparum 3D7, 3D7
T3 sequence (O96935 whole entry): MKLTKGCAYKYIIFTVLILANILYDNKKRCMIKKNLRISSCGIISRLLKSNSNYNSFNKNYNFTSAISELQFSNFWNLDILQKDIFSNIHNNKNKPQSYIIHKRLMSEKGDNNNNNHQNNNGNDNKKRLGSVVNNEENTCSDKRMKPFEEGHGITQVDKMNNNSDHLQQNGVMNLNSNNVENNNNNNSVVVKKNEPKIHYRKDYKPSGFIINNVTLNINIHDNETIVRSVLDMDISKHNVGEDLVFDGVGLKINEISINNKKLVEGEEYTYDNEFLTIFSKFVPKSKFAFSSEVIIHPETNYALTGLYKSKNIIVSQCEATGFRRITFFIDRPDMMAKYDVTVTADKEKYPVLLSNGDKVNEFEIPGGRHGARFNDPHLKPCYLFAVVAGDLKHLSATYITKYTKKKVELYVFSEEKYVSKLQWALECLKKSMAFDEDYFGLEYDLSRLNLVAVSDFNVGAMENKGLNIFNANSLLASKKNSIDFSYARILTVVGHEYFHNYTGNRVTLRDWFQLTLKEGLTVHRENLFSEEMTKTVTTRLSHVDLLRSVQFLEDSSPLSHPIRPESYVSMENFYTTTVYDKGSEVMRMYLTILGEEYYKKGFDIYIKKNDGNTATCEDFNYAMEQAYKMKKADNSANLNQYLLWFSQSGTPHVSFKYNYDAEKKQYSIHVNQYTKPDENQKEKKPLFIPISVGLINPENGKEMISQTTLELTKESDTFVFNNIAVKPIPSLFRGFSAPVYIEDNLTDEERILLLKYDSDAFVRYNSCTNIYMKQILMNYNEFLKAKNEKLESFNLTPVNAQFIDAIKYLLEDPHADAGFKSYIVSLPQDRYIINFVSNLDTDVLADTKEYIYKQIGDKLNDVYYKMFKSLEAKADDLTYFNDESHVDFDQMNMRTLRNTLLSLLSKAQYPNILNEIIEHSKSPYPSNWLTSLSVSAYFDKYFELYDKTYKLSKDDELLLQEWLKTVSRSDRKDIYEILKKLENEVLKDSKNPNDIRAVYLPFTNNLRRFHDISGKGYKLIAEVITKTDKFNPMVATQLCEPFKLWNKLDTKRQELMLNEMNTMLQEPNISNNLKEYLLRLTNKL

NS3 = NS3 (Hepatitis C virus, UniProt A3EZJ3); experiment: PubChem AID 2173; parameters: species or system Hepacivirus hominis
[4] = target: FAD-linked sulfhydryl oxidase ALR (Homo sapiens, UniProt P55789); experiment: ALR-catalysed DTT oxidation blockers – biochemical, H2O2 detection, luminescence, cherry-pick, dose response (AID 493248)
[5] = target: Luciferin 4-monooxygenase (Photinus pyralis, UniProt P08659); experiment: inhibition of purified Photinus pyralis luciferase – biochemical, luminescence, dose response (AID 1891)
[6] = Luminescence Cell-Based Dose Confirmation HTS to Identify Inhibitors of Platelet Dense Granule Release. [Related pubchem assays: 1663 (Primary HTS), 1678 (Summary of Project)]; type: functional
[7] = Trypanosoma cruzi growth suppression in host cells – NIH3T3 host cells, beta-gal luminescence, confirmation (AID 2044); type: functional, cell-based;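 note: intracellular parasites grown in NIH/3T3 mouse fibroblasts as host cells; luminescent beta-galactosidase reporter signal from transgenic T. cruzi replicating inside host cells; inhibitors lower the luminescence signal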
[8] = NIH3T3 cell viability loss – ATP luminescence, mouse fibroblasts, counter-screen, dose response (AID 2010); type: functional, cell-based;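 note: cells exposed to compound for about 90 hours before reading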
[9] = target: DNA dC->dU-editing enzyme APOBEC-3A (Homo sapiens, UniProt P31941); experiment: Dose Response confirmation of small molecule APOBEC3A DNA Deaminase Inhibitors via a fluorescence-based single-stranded DNA deaminase assay. [Related pubchem assays (depositor defined):AID493011, AID493024]; type: functional
[10] = target: T4, Short transient receptor potential channel 4 (Mus musculus, UniProt Q9QUQ5); experiment: block of DAMGO-driven TRPC4 calcium entry – cell-based, HEK293 TRPC4/mu-opioid, Fluo-4 calcium, dose response (AID 434942); type: functional;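 note: potency of inhibitors blocking the TRPC4 calcium response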
T4 sequence (Q9QUQ5 whole entry): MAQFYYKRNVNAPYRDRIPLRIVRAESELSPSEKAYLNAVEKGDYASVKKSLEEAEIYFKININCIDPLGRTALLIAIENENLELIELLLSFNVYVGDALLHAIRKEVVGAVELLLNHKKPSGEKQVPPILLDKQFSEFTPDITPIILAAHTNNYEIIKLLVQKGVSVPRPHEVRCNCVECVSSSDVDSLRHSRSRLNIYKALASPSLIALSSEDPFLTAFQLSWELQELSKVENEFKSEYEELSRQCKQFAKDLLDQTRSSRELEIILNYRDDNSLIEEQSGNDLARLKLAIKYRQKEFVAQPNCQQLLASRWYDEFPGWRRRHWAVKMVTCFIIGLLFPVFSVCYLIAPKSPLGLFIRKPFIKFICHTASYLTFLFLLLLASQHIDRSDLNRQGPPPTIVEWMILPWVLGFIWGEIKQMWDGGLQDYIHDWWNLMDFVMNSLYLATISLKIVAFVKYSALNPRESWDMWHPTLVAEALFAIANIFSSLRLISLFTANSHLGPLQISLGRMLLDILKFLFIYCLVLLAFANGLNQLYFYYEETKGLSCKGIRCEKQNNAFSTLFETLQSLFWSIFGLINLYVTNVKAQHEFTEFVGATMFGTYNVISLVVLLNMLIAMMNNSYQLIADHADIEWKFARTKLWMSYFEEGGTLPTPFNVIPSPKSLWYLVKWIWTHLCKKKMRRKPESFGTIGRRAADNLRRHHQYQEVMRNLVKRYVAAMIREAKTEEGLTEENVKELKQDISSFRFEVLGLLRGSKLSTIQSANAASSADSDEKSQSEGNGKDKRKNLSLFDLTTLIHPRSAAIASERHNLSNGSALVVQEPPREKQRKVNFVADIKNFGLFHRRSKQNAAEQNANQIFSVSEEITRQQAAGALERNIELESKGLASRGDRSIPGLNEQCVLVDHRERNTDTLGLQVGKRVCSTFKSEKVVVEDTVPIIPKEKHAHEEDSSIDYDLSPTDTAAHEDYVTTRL

[11] = HEK-293T viability loss after treatment – luminescence, T-cell screen hits, cytotoxicity control for TCR NF-kB inhibitor project, dose response (AID 489026); type: functional, cell-based;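 note: cells exposed to compound about 14 hours before the viability readout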
[12] = target: DNA dC->dU-editing enzyme APOBEC-3G (Homo sapiens, UniProt Q9HC16); type: functional;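 note: Dose-response counterscreen measuring inhibition of APOBEC3G DNA deaminase activity, run while confirming APOBEC3A inhibitors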
Hexokinase HKDC1 = target: T5, Hexokinase HKDC1 (Homo sapiens, UniProt Q2TB90); experiment: inhibition of HKDC1 glucose phosphorylation – biochemical, W721R variant, dose response (AID 504729); type: functional
T5 sequence (Q2TB90 whole entry): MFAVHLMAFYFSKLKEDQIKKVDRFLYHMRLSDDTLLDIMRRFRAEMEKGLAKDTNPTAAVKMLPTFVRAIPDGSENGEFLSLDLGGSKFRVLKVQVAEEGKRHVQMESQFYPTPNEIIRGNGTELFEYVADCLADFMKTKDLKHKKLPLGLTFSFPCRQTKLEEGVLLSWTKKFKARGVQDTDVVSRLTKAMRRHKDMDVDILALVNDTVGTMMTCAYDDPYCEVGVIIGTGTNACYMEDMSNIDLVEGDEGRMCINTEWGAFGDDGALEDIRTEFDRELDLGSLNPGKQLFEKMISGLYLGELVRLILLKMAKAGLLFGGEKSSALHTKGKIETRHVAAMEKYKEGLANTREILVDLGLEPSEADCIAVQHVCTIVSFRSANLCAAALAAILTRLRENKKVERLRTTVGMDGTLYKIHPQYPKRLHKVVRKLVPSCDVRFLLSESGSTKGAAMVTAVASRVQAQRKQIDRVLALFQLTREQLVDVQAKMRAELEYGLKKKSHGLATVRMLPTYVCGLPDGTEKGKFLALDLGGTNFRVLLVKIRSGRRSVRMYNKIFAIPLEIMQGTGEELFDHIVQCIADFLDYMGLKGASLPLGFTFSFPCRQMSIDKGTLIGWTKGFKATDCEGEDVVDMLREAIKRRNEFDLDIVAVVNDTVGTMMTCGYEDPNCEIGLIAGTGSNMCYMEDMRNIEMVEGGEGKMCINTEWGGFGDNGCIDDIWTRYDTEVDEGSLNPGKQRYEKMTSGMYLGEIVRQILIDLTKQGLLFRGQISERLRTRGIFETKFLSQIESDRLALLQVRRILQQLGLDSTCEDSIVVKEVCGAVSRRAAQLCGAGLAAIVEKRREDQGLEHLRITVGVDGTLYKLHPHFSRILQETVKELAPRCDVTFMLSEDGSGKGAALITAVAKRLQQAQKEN

Cytochrome P450 2D6 = Cytochrome P450 2D6 (Homo sapiens, UniProt P10635);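 note: CYP2D6 member of a cytochrome P450 panel assay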
Cytochrome P450 2C19 = Cytochrome P450 2C19 (Homo sapiens, UniProt P33261); experiment: Cytochrome panel assay with activity outcomes. Panel member name: p450-cyp2c19 Compounds with AC50 equal or less than 10 uM are considered active; type: functional; details: read-out: AC50
Chain of Cytochrome P450 2C19 (P33261 whole entry): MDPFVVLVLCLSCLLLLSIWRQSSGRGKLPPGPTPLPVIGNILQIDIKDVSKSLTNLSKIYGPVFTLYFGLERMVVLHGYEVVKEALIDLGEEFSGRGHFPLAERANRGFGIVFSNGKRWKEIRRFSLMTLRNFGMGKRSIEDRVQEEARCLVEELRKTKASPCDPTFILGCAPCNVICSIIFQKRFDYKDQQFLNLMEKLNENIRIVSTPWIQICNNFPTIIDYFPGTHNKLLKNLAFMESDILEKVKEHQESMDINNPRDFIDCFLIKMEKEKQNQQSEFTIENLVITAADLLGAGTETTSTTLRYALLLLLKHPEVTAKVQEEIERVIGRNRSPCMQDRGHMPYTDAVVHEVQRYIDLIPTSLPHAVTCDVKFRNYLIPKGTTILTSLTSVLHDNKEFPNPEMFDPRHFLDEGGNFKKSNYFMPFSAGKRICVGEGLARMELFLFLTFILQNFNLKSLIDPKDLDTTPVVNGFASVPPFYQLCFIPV

Chain of Cytochrome P450 2C9 (P11712 whole entry): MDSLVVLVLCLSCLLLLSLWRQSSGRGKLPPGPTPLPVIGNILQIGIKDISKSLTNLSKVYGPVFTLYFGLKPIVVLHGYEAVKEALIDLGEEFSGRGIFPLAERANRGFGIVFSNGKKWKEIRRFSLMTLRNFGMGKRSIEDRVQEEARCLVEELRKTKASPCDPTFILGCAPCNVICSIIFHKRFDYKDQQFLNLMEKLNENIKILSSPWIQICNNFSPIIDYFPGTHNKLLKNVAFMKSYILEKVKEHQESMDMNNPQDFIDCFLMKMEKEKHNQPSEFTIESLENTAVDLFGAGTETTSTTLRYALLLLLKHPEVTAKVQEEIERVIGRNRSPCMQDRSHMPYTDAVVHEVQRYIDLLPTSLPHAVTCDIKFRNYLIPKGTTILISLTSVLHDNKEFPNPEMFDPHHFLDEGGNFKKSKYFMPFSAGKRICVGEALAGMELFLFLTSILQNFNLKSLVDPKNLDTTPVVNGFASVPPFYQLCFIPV
Chain of Polyadenylate-binding protein 1 (P11940 whole entry): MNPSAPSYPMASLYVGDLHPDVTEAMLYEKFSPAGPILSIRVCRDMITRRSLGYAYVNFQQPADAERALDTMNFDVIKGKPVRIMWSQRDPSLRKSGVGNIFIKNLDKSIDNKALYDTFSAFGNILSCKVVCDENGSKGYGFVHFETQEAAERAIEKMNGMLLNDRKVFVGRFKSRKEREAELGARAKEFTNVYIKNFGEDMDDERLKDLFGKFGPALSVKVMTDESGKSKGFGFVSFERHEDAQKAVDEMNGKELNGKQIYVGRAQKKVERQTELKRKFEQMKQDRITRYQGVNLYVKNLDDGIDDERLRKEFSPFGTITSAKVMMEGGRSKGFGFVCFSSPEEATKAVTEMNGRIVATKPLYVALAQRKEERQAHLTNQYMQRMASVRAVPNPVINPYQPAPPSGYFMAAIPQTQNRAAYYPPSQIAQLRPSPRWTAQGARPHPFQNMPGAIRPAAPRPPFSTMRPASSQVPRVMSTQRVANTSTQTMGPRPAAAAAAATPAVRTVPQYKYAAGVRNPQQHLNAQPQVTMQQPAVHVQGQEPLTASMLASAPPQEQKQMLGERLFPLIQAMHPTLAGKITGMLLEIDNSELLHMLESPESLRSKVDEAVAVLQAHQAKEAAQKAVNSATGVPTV
Chain of FAD-linked sulfhydryl oxidase ALR (P55789 whole entry): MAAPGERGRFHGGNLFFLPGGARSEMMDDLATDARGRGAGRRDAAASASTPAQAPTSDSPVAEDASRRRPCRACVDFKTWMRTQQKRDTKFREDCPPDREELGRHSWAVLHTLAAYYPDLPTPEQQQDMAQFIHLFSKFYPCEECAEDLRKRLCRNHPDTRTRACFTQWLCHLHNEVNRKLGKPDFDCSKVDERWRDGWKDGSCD
Chain of NS3 (A3EZJ3 whole entry): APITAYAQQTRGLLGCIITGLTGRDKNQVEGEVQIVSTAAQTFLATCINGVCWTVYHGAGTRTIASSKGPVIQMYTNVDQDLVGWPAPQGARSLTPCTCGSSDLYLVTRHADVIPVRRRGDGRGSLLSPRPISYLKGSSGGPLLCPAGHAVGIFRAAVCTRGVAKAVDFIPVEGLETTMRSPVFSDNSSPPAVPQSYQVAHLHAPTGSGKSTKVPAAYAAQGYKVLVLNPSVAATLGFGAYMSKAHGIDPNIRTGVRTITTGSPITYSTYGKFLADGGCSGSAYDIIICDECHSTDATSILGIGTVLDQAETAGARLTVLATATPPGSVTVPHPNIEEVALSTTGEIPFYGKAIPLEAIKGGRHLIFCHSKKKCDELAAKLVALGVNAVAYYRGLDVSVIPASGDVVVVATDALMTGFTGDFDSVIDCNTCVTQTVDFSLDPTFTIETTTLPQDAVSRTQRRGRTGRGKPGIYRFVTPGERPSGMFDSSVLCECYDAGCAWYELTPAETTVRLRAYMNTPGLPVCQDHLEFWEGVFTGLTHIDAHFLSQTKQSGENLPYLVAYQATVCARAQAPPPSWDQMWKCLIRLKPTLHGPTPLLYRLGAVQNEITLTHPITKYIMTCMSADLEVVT
Chain of Cytochrome P450 2D6 (P10635 whole entry): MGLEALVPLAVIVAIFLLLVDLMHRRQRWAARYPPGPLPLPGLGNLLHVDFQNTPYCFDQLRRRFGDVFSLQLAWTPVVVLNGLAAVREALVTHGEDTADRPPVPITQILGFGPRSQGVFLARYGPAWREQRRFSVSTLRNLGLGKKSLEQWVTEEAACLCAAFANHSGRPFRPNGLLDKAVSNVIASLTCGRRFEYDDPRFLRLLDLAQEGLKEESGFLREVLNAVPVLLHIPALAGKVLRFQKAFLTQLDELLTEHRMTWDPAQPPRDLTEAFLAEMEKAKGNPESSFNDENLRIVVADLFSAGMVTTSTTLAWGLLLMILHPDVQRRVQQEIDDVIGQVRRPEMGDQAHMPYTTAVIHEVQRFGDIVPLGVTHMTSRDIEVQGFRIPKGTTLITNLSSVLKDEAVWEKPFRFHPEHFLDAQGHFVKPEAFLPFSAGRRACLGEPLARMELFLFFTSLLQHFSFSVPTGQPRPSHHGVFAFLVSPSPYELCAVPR
Chain of DNA dC->dU-editing enzyme APOBEC-3G (Q9HC16 whole entry): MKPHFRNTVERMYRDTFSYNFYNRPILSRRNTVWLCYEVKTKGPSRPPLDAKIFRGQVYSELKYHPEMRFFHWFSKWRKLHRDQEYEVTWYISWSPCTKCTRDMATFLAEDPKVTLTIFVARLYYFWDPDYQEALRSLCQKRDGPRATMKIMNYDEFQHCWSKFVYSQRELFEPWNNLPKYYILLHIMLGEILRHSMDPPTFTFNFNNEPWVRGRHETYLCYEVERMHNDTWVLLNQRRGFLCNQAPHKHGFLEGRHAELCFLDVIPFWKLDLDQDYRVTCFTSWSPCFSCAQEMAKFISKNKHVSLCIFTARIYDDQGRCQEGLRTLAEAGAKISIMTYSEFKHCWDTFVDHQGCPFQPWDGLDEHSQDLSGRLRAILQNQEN
Chain of DNA dC->dU-editing enzyme APOBEC-3A (P31941 whole entry): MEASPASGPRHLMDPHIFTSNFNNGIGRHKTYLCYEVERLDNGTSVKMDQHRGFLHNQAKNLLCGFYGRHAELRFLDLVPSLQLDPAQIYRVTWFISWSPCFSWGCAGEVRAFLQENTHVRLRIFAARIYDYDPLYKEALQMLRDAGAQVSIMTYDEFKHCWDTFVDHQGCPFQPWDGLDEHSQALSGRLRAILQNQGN
Chain of Luciferin 4-monooxygenase (P08659 whole entry): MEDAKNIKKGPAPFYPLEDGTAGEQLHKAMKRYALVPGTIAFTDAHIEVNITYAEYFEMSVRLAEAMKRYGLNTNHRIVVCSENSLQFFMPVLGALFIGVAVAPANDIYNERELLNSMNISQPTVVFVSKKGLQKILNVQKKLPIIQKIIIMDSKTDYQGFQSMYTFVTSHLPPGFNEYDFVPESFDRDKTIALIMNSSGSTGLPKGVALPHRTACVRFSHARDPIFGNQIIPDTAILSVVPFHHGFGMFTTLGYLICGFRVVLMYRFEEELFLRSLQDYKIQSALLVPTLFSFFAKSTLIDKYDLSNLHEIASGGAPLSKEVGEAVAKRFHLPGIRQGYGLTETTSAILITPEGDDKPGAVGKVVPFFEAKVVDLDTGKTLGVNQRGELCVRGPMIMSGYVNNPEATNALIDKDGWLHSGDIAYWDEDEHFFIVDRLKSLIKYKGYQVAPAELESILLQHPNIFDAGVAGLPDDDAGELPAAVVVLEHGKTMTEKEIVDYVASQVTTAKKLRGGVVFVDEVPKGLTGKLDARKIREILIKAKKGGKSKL

Structure (SMILES): Cc1c(O)ccc(C(=O)CN2CCN(Cc3ccc4c(c3)OCO4)CC2)c1O
- CC50 (HeLa): > 99 µM (not active)

Structure (SMILES): CCOc1ccc(NC(=O)C2CCCN2C(=O)Oc2ccccc2)cc1 (stereo unspecified)
- IC50 [1]: > 100 µM (inactive)
- IC50 [2]: 1.85 µM (active)

Structure (SMILES): CC(C)C[C@H]1C(=O)N2CCC[C@@H]2[C@]2(O)O[C@](NC(=O)[C@H]3C=C4c5cccc6[nH]cc(c56)C[C@H]4N(C)C3)(C(C)C)C(=O)N12
- AC50 (Cytochrome P450 2C9): 12.6 µM (inconclusive)

Structure (SMILES): O=C(Oc1ccc(F)cc1C(=O)/C=C/c1cccs1)c1cccc([N+](=O)[O-])c1
- CC50 (HeLa): > 33 µM (not active)

- EC50 [3]: > 100 µM (not active)
Structure (SMILES): Oc1c(/C=N/Nc2cccc3cccnc23)ccc2ccccc12

- IC50 (Leucine aminopeptidase): 124 µM (active)
- IC50 (Aminopeptidase N): 99.7 µM (active)
- IC50 (NS3): 6.31 µM (active)
- AC50 [4]: 14.6 µM (active)
Structure (SMILES): COc1ccc(S(=O)(=O)NC2=NC(=O)/C(=C/c3ccco3)S2)cc1

Structure (SMILES): CCCCCn1c2c(c(=N)c3ccccc31)CCC2
- IC50 [1]: > 100 µM (inactive)
- EC50 [5]: > 112 µM (not active)
- EC50 [6]: 0.788 µM (active)
- EC50 [7]: < 0.1 µM (active)
- EC50 [8]: > 60 µM (not active)
- IC50 [2]: 5.93 µM (active)
- IC50 [9]: 2.62 µM (active)
- EC50 [10]: 1.5 µM (active)
- IC50 [11]: > 80 µM (inactive)
- IC50 [12]: 3.19 µM (active)
- EC50 (cells): 0.006 µM (active)

- IC50 (Hexokinase HKDC1): 13.6 µM (active)
Structure (SMILES): Cc1cc2cc(CCNC(=O)c3ccc(S(=O)(=O)N4CCCC4)cc3)c(O)nc2cc1C

Structure (SMILES): CN1CCc2cc3c(cc2[C@@H]1[C@@H]1OC(=O)c2c1ccc1c2OCO1)OCO3
- AC50 (Cytochrome P450 2C9): 39.8 µM (inconclusive)
- AC50 (Cytochrome P450 2D6): 12.6 µM (inconclusive)

- EC50 [3]: 63 µM (not active)
- AC50 (Cytochrome P450 2C19): 0.178 µM (inconclusive)
Structure (SMILES): CCNC(=S)NNC(=O)c1cc(CC(C)C)nc2ccccc12
